Measurements reported in article PMC4178217, “Quinoline 3-sulfonamides inhibit lactate dehydrogenase A and reverse aerobic glycolysis in cancer cells” (Cancer & Metabolism, 2013).

How the values were obtained:
[1] = rat plasma protein equilibrium dialysis assay; format: in vitro ADME; details: read-out: rat plasma protein binding (converted)
[2] = test system: permeabilized HepG2 cells; test: Seahorse XF96 permeabilized cells (mitochondrial function); format: cell-based, human
Experimental: HepG2 cells were seeded overnight in DMEM, 10% FBS, at 16,000 cells/well in an XF96 V3 PET plate. The next day, the medium was removed, and the wells were rinsed and filled with mitochondrial assay solution (MAS: 70 mM sucrose, 220 mM mannitol, 10 mM KH2PO4, 5 mM MgCl2, 2 mM HEPES, 1.0 mM EGTA) containing 10 mM pyruvate/10 mM malate/4 mM ADP and 2 nM XF Plasma Membrane Permeabilizer (PMP) (Seahorse Biosciences). […]. OCR and ECAR readings were determined for three cycles (two minutes mixing, two minutes measuring) after each compound addition.

Snu398 cells [3] = test: Pyruvate kinase (PK) activity, Snu398; format: cell-based; details: Homo sapiens, SNU-398; Snu398, 6 h
Experimental: One and a half million cells per well were plated in 6-well tissue culture plates in R10 medium and allowed to attach overnight. The following morning, cells were washed and medium replaced with 2 mL/well of low-glucose medium. DMSO control or the indicated doses of LDHA inhibitor dissolved in DMSO were added to the wells and cells were incubated at 37°C for 6 h. Following the incubation, cells were washed, scraped into 200 μl of distilled de-ionized water and homogenized on ice using OMNI THq homogenizer (Omni International, Kennesaw, GA, USA). Homogenates were cleared by centrifugation and protein concentration measured by bicinchoninic acid (BCA) assay (Thermo Fisher Scientific, Waltham, MA, USA). PK activity was determined using PK Activity kit (BioVision Research Products) per manufacturer’s instructions and normalized to protein concentration. For detection of PKM2 oligomerization, the same protein samples were separated by non-denaturing gel electrophoresis using the NativePAGE™ gel system (Life Technologies), transferred onto polyvinylidene difluoride (PVDF) membranes and subjected to western immunoblotting with anti-PKM2 antibody.

Snu398 cells [4] = test: 13C NMR spectroscopy of glucose consumption and lactate production, Snu398; format: cell-based, human
Experimental: After this pre-incubation, cells were washed in PBS and resuspended in 400 μL of glucose-free RPMI supplemented with 10% deuterium oxide, 11 mM D-(1,6-^13C2)glucose, and LDHA inhibitor or DMSO. An additional 600 μL of the same medium was gently added to top off the resuspended cells. Five mm NMR tubes with reduced sample depth (Shigemi Inc, Allison Park, PA, USA) were used to ensure that the cells remain inside the active volume of the receiver coil of the probe. […] . Prior to Fourier transformation, sensitivity and resolution were enhanced by applying an exponential line-broadening of 1 Hz over the first 32,000 data points and then zero filled to 256,000 data points. Spectra were analyzed using in-house data analysis software.

Snu398 cells [5] = test: Compound cellular permeability assay, whole-cell extract; format: in vitro ADME, human; details: Snu398 treated with 1 μM for 1.5 h
Experimental: Compound cellular permeability assays For cytosolic permeability assay, twelve million Snu398 cells were allowed to attach overnight and treated with DMSO control or 1 µM Compound 2 for 1.5 h in 1.7 mM glucose medium. The medium was removed, cells were washed in phosphate-buffered saline (PBS), and cytosolic extracts were prepared by solubilization in Qproteome lysis buffer (Qiagen, Valencia, CA). For whole-cell permeability assay, 75,000 Snu398 cells/well were plated in 96-well plates and treated with DMSO control or 1 µM compounds for 1.5h in low glucose medium. The medium was removed, cells were washed in PBS and solubilized in 50:50 mixture of methanol and acetonitrile. Compound concentration in the cytosolic or whole-cell extract was determined by LC/MS/MS analysis. An Acquity UPLC system (Waters Inc., Milford, MA) was coupled to an API 4000 or API 5000 triple-quad mass spectrometer (Applied Biosystems). […] Compound concentration in cells was determined by counting the number of cells in sample wells and assuming 3 pL/cell volume.

[6] = human plasma protein binding by equilibrium dialysis; format: in vitro ADME
cancer cell lines = test: Lactate production assay, panel of cancer cell lines; details: Homo sapiens, read-out: lactate production EC50 across cell lines
PK analysis in rats = format: in vivo, male Sprague–Dawley rats
Experimental: All studies were conducted after review by the Institutional Animal Care and Use Committee at GlaxoSmithKline (GSK) and in accordance with the GSK Policy on the Care, Welfare and Treatment of Laboratory Animals.

recombinant human LDHA = recombinant human LDHA (Homo sapiens, UniProt P00338); test: LDHA enzymatic assay with increasing levels of NADH; format: biochemical; details: NADH 120 μM; read-out: LDHA IC50 at high NADH
Experimental: LDHA enzymatic assay with increasing levels of NADH The following reaction was assembled in clear-bottom 96 well plate: 50 mM phosphate buffer pH 7.0, 50 mM NaCl, 0.25 mM CHAPS, 200 µM NaPyruvate, 250 pM recombinant human LDHA, and the indicated amounts of NADH and Compound 2. Absorbance change due to NADH conversion to NAD^+ was read on SpectraMax M2 (Molecular Devices, Sunnyvale, CA) at 340 nm every 40 sec for 6 min.

Snu398 cells [7] = test: Compound cellular permeability assay, cytosolic extract; format: in vitro ADME, human; details: Snu398 treated with 1 μM for 1.5 h, LC/MS/MS
Experimental: The medium was removed, cells were washed in phosphate-buffered saline (PBS), and cytosolic extracts were prepared by solubilization in Qproteome lysis buffer (Qiagen, Valencia, CA). […] The medium was removed, cells were washed in PBS and solubilized in 50:50 mixture of methanol and acetonitrile. Compound concentration in the cytosolic or whole-cell extract was determined by LC/MS/MS analysis. An Acquity UPLC system (Waters Inc., Milford, MA) was coupled to an API 4000 or API 5000 triple-quad mass spectrometer (Applied Biosystems). […] Compound concentration in cells was determined by counting the number of cells in sample wells and assuming 3 pL/cell volume.

Row | Compound | fraction unbound [1] | concentrations with no changes in OCR or ECAR ([2]; permeabilized HepG2, pyruvate/malate/ADP) | doses with direct mitochondrial effects (reduced mitochondrial respiration) ([2]; permeabilized HepG2, decreased OCR, increased ECAR) [µM] | EC50 (Snu398 cells [3]) [µM] | (3-13C)lactate production (Snu398 cells [4]; Snu398, 10 μM) | D-(1,6-13C2)glucose consumption (Snu398 cells [4]; Snu398 versus HepG2, 10 μM) | apparent intracellular concentration versus medium (Snu398 cells [5]) | fraction unbound [6] | EC50 (cancer cell lines) [µM] | clearance (PK analysis in rats; male, Sprague-Dawley, rat, whole blood, IV infusion 0.25 mg/kg) [mL/min/kg] | blood compound level (PK analysis in rats; oral 50 mg/kg, detection limit 2.5 ng/mL) [ng/mL] | IC50 (recombinant human LDHA) [µM] | apparent intracellular concentration (cytosolic extract) (Snu398 cells [7]) [µM]
1 | COc1ncc(-c2ccc3c(Nc4cc(Oc5cc(F)cc(F)c5)cc(C(=O)O)c4)c(S(=O)(=O)NC4CC4)cnc3c2)c(OC)n1 [Compound 1] | 0.012 | up to 3 μM | ≥ 10 | 0.6 | significantly slowed down lactate production | only affected glucose consumption in Snu398 cells | higher apparent intracellular concentrations than that of the medium | 0.013 | ≥ 0.4 | 69 | ≤ 2.5 |  | 
2 | COc1ncc(-c2ccc3c(Nc4cc(C(=O)O)cc(C5CCCC5)c4)c(S(=O)(=O)NC4CC4)cnc3c2)c(OC)n1 [Compound 2] |  |  |  |  |  |  |  |  |  |  |  | 0.067 | 18
